Molecules are shown by their SMILES. Read-outs that look alike come from different tables or passages of the source.

What all share (format): in vivo
The subject of assay [1] is Kochia (Kochia scoparia). The experiment in a line: Test A preemergence. As to conditions: Bassia scoparia, pre-emergence, 240 h; for pest or weed control at 125 g/ha: 125 g ai/ha; for pest or weed control at 500 g/ha: 500 g ai/ha. The procedure, abridged: (§1)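 Each rating is a visual injury score from 0 to 100 given about 10 d after treatment, judged against untreated controls kept alongside in the greenhouse. In loam soil–sand blend, seeds got a preemergence directed soil spray, while postemergence plants were 2 to 10 cm tall at spraying.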

In assay [2] the test system is barnyardgrass (Echinochloa crus-galli). As to the kind of experiment: Test A preemergence. As to conditions: Echinochloa crus-galli, pre-emergence, 240 h; for pest or weed control at 125 g/ha: 125 g ai/ha; for pest or weed control at 500 g/ha: 500 g ai/ha. Put shortly: as §1
Assay [3] concerns giant foxtail (Setaria faberii). The experiment in a line: Test A preemergence. As to conditions: Setaria faberi, pre-emergence, 240 h; for pest or weed control at 125 g/ha: 125 g ai/ha; for pest or weed control at 500 g/ha: 500 g ai/ha. Put shortly: as §1
Assay [4] has as its system pigweed (Amaranthus retroflexus). As to the kind of experiment: Test A preemergence. As to conditions: Amaranthus retroflexus, pre-emergence, 240 h; for pest or weed control at 125 g/ha: 125 g ai/ha; for pest or weed control at 500 g/ha: 500 g ai/ha.
Assay [5] concerns ragweed (common ragweed, Ambrosia elatior). As to the kind of experiment: Test A preemergence. As to conditions: Ambrosia artemisiifolia, pre-emergence, 240 h; for pest or weed control at 125 g/ha: 125 g ai/ha; for pest or weed control at 500 g/ha: 500 g ai/ha. The procedure, abridged: as §1
For assay [6], the system named is ryegrass, Italian (Italian ryegrass, Lolium multiflorum). The experiment in a line: Test A preemergence. As to conditions: Lolium multiflorum, pre-emergence, 240 h; for pest or weed control at 125 g/ha: 125 g ai/ha; for pest or weed control at 500 g/ha: 500 g ai/ha. The procedure, abridged: as §1
The subject of assay [7] is Galium (catchweed bedstraw, Galium aparine). The experiment in a line: Test A postemergence. The conditions noted are these: Galium, post-emergence, 240 h; for pest or weed control at 125 g/ha: 125 g ai/ha. Put shortly: as §1
The subject of assay [8] is barnyardgrass (Echinochloa crus-galli). The experiment in a line: Test A postemergence. As to conditions: Echinochloa crus-galli, post-emergence, 240 h; for pest or weed control at 125 g/ha: 125 g ai/ha. Put shortly: as §1
Assay [9] has as its system corn (Zea mays). The experiment in a line: Test A postemergence. The conditions noted are these: Zea mays, post-emergence, 240 h. The procedure, abridged:
as §1

In assay [10] the test system is ragweed (common ragweed, Ambrosia elatior). As to the kind of experiment: Test A postemergence. The conditions noted are these: Ambrosia artemisiifolia, post-emergence, 240 h; for pest or weed control at 125 g/ha: 125 g ai/ha. The procedure, abridged:
as §1

For assay [11], the system named is barnyardgrass (Echinochloa crus-galli). The experiment in a line: Test B flooded paddy test. As to conditions: Echinochloa crus-galli, 250 g ai/ha, Flood, read-out: Barnyardgrass plant response rating. Put shortly:
(§2)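 Compound goes directly into floodwater once pots are flooded 3 cm above soil, targeting plants at two leaves; the water depth is then held for the test duration. Plants sit 13–15 d in a greenhouse and are rated visually, 100 denoting complete control.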

Assay [12] concerns ducksalad (Heteranthera limosa). As to the kind of experiment: Test B flooded paddy test. The conditions noted are these: Heteranthera limosa, 250 g ai/ha, Flood, read-out: Ducksalad plant response rating. Put shortly: as §2
The subject of assay [13] is rice (Oryra sativa). As to the kind of experiment: Test B flooded paddy test. The conditions noted are these: Oryza sativa, 250 g ai/ha, Flood, read-out: Rice plant response rating. Put shortly: as §2
The test system of assay [14] is sedge, umbrella (small-flower umbrella sedge, Cyperus difformis). As to the kind of experiment: Test B flooded paddy test. The conditions noted are these: Cyperus difformis, 250 g ai/ha, Flood, read-out: Sedge, Umbrella plant response rating. The procedure, abridged:
as §2

Where [15] appears, read: 0 to 100 scale where 0 is no effect and 100 is complete control.
Where [16] appears, read: scale of 0 to 100 where 0 is no effect and 100 is complete control.

On to `CN1C[C@H](c2ccc(C(F)(F)F)cc2)[C@](F)(C(=O)Nc2cccc(F)c2F)C1=O` (racemic) [Compound 1152], for which the pest or weed control at 125 g/ha in assay [1] (preemergence, 0 to 100 scale where 0 is no effect and 100 is complete control, approx. 10 d, read-out: Kochia plant response rating) is 0%; in [2] (preemergence, 0 to 100 scale where 0 is no effect and 100 is complete control, approx. 10 d, read-out: Barnyardgrass plant response rating), 20%; in assay [3] (preemergence, 0 to 100 scale where 0 is no effect and 100 is complete control, approx. 10 d, read-out: Foxtail, Giant plant response rating), 70%; in [4] (preemergence, 0 to 100 scale where 0 is no effect and 100 is complete control, approx. 10 d, read-out: Pigweed plant response rating) it was 60%; in assay [5] (preemergence, 0 to 100 scale where 0 is no effect and 100 is complete control, approx. 10 d, read-out: Ragweed plant response rating), 0%; in assay [6] (preemergence, 0 to 100 scale where 0 is no effect and 100 is complete control, approx. 10 d, read-out: Ryegrass, Italian plant response rating), 0%. The pest or weed control at 125 g/ha in assay [7] (postemergence, visual injury on 0 to 100 scale (0 no effect, 100 complete control), approx. 10 d, read-out: Galium plant response rating) stood at 0%; in assay [8] (postemergence, visual injury on 0 to 100 scale (0 no effect, 100 complete control), approx. 10 d, read-out: Barnyardgrass plant response rating), 0%; in [10] (postemergence, visual injury vs untreated controls after approx. 10 d, 0 = no effect, 100 = complete control, read-out: Ragweed plant response rating (0 to 100 scale)), 0%. The pest or weed control at 500 g/ha in assay [1] (preemergence, 0 to 100 scale where 0 is no effect and 100 is complete control, read-out: Kochia plant response rating) was 0%; in assay [2] (preemergence, 0 to 100 scale where 0 is no effect and 100 is complete control, read-out: Barnyardgrass plant response rating) it was 90%; in assay [3] (preemergence, 0 to 100 scale where 0 is no effect and 100 is complete control, read-out: Foxtail, Giant plant response rating) it was 90%; in assay [4] (preemergence, 0 to 100 scale where 0 is no effect and 100 is complete control, read-out: Pigweed plant response rating) it was 80%; in assay [5] (preemergence, 0 to 100 scale where 0 is no effect and 100 is complete control, read-out: Ragweed plant response rating), 0%; in assay [6] (preemergence, 0 to 100 scale where 0 is no effect and 100 is complete control, read-out: Ryegrass, Italian plant response rating), 20%. The pest or weed control at 500 g/ha is 20% in [7] (500 g ai/ha, postemergence, 0 to 100 scale, 0 is no effect, 100 is complete control, read-out: Galium plant response rating); 0% in [8] (500 g ai/ha, postemergence, 0 to 100 scale, 0 is no effect, 100 is complete control, read-out: Barnyardgrass plant response rating); 0% in assay [10] (500 g ai/ha, postemergence, 0 to 100 scale, 0 is no effect, 100 is complete control, read-out: Ragweed plant response rating). Moreover, the plant injury at 125 g/ha in assay [9] (125 g ai/ha, postemergence, visual injury on 0 to 100 scale (0 no effect, 100 complete control), approx. 10 d, read-out: Corn plant response rating) stood at 0%. Besides, the plant injury at 500 g/ha in assay [9] (500 g ai/ha, postemergence, 0 to 100 scale, 0 is no effect, 100 is complete control, read-out: Corn plant response rating) was 0%. Moreover, the pest or weed control at 250 g/ha in assay [11] (setting [15]), in assay [12] (setting [15]), in assay [13] (setting [15]) and in assay [14] (setting [15]) was 0% throughout.

For `CC(C)COc1cccc([C@H]2CNC(=O)[C@@H]2C(=O)Nc2ccc(F)cc2F)c1` [Compound 966], the pest or weed control at 125 g/ha in assay [1] (Preemergence, visual injury rating after approximately 10 d, read-out: Kochia plant response rating (0 to 100 scale, 0 is no effect, 100 is complete control)) was found to be 30%; in assay [2] (Preemergence, visual injury rating after approximately 10 d, read-out: Barnyardgrass plant response rating (0 to 100 scale, 0 is no effect, 100 is complete control)), 80%; in assay [3] (Preemergence, visual injury rating after approximately 10 d, read-out: Foxtail, Giant plant response rating (0 to 100 scale, 0 is no effect, 100 is complete control)) it was 80%; in [4] (Preemergence, visual injury rating after approximately 10 d, read-out: Pigweed plant response rating (0 to 100 scale, 0 is no effect, 100 is complete control)), 0%; in [5] (Preemergence, visual injury rating after approximately 10 d, read-out: Ragweed plant response rating (0 to 100 scale, 0 is no effect, 100 is complete control)) it was 0%; in assay [6] (Preemergence, visual injury rating after approximately 10 d, read-out: Ryegrass, Italian plant response rating (0 to 100 scale, 0 is no effect, 100 is complete control)) it was 20%. Moreover, the pest or weed control at 125 g/ha in [7] (Postemergence, visual injury after approximately 10 d, 0 to 100 scale where 0 is no effect and 100 is complete control, read-out: Plant response rating, Galium) is 20%; in [8] (Postemergence, visual injury after approximately 10 d, 0 to 100 scale where 0 is no effect and 100 is complete control, read-out: Plant response rating, Barnyardgrass) it was 60%; in assay [10] (Postemergence, visual injury after approximately 10 d, 0 to 100 scale where 0 is no effect and 100 is complete control, read-out: Plant response rating, Ragweed) it was 0%. Moreover, the pest or weed control at 500 g/ha was determined as 30% in [1] (preemergence, visual injury rating about 10 d after treatment, 0 to 100 scale (0 no effect, 100 complete control), read-out: Kochia plant response rating); 90% in assay [2] (preemergence, visual injury rating about 10 d after treatment, 0 to 100 scale (0 no effect, 100 complete control), read-out: Barnyardgrass plant response rating); 90% in assay [3] (preemergence, visual injury rating about 10 d after treatment, 0 to 100 scale (0 no effect, 100 complete control), read-out: Foxtail, Giant plant response rating); 0% in assay [4] (preemergence, visual injury rating about 10 d after treatment, 0 to 100 scale (0 no effect, 100 complete control), read-out: Pigweed plant response rating); 0% in [5] (preemergence, visual injury rating about 10 d after treatment, 0 to 100 scale (0 no effect, 100 complete control), read-out: Ragweed plant response rating); 60% in [6] (preemergence, visual injury rating about 10 d after treatment, 0 to 100 scale (0 no effect, 100 complete control), read-out: Ryegrass, Italian plant response rating). Besides, the Corn plant response rating (crop injury, 0 = no effect, 100 = complete kill) at 125 g/ha in assay [9] (125 g ai/ha, Postemergence, visual injury after approximately 10 d, 0 to 100 scale where 0 is no effect and 100 is complete control) came to 0%. Also, the pest or weed control at 250 g/ha in assay [11] (setting [16]) was 0%; in assay [12] (setting [16]) it was 60%; in assay [13] (setting [16]), 0%; in [14] (setting [16]) it was 0%.

The values above are taken from patent US12077503B2, “Substituted cyclic amides and their use as herbicides” (FMC CORPORATION, priority 2015, dated 2024).
